No end group written: not given here.
What was measured:
[1] = system: BP1-151HSA conjugate (MUC1 24 amino acid peptide conjugated to HSA); experiment: Anti-MUC1 antibody levels (serum ELISA) after immunization, BP1-151-HSA solid phase; format: in vivo, C57BL/6 mice; conditions: for antibody levels / humoral immunity (in words): immunized mice, liposomal formulations containing lipid A adjuvant
Description: (§1) MUC1 based liposomal vaccines (“BLP25 liposomal vaccines”) at a dose of 100 μg (250 μl) was injected subcutaneously, two, three, or four times, at biweekly intervals, into right and left inguinal regions (125 μl per each site).

[2] = system: BP1-151HSA conjugate (MUC1 24 amino acid peptide conjugated to HSA); experiment: Anti-MUC1 IgG levels (serum ELISA) in MUC1 transgenic mice, BP1-151 HSA solid phase; format: in vivo, C57Bl/6 MUC1 transgenic mice; conditions: Protocol 1347C, 4 immunizations, individual mouse
Description: To further characterize the observed phenomenon, MUC I transgenic mice were immunized with MUC I based liposomal formulations containing mono- or dilipopeptides.

[3] = system: Blend C (natural human MUC1 mucin purified from ovarian cancer ascites); experiment: Anti-MUC1 antibody levels (serum ELISA) after immunization, Blend C solid phase; format: in vivo; conditions: Protocol 1346; C57Bl/6 mice immunized two times, subcutaneously; individual mouse
Sequence of Blend C (natural human MUC1 mucin purified from ovarian cancer ascites) (P15941 24-1255): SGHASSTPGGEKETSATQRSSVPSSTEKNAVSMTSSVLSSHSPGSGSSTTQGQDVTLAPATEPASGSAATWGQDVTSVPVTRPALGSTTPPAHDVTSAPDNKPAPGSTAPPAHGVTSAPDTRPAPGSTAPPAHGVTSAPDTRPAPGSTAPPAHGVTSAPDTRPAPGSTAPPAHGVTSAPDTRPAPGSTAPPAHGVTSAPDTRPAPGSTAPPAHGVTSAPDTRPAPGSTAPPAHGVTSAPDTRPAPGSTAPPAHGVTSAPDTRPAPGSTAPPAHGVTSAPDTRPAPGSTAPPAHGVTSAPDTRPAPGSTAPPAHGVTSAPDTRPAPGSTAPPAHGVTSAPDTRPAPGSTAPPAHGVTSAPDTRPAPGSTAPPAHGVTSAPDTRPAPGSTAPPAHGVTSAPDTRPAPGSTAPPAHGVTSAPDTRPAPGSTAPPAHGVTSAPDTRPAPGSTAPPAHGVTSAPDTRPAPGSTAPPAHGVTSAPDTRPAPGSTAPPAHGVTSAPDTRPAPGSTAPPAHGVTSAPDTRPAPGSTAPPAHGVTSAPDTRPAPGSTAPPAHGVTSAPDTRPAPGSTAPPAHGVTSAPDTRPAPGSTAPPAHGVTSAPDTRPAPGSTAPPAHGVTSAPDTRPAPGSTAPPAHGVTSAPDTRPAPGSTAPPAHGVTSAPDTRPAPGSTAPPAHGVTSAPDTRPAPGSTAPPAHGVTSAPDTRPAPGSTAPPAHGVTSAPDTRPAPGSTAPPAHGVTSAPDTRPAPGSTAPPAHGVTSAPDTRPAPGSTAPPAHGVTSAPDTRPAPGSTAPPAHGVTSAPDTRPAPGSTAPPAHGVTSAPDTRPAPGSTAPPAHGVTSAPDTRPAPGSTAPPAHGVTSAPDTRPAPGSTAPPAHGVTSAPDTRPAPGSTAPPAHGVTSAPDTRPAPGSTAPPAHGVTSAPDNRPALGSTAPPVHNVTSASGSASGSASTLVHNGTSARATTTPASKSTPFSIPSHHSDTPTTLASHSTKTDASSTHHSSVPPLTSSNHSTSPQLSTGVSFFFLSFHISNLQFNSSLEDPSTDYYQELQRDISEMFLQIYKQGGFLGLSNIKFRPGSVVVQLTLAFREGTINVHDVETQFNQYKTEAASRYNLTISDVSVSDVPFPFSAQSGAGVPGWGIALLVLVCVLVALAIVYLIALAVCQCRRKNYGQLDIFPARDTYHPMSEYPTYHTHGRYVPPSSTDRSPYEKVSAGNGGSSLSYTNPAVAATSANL
Description: as §1

| Substance | antibody levels / humoral immunity (in words) [1] | Antibody Titer, IgG, BP1-151 HSA [2] | Antibody Titer, IgG, BP1-151-HSA ([1]; Protocol 1346, C57Bl/6 mice immunized two times, subcutaneously, individual mouse) | Antibody Titer, IgG, Blend C [3] |
| --- | --- | --- | --- | --- |
| TAPPAHGVTSAPDTRPAPGSTAPPK(palmitate)K(palmitate)G [BP1-132A] | induce humoral immunity |  |  |  |
| GVTSAPDTRPAPGSTAS(myristyl)S(myristyl)L [BP1-217] |  | strong IgG antibody response |  |  |
| GVTSAPDTRPAPGSTAS(myristyl)L [BP1-228] | very low or no antibody levels | very low titers of IgG | only low titers | no antibodies were detected |

Source: patent US8552145B2, “Vaccine for modulating between T1 and T2 immune responses” (priority 2001, dated 2013)
